Reference: patent publication US20120029187A1, “HALOALKYLSULFONANILIDE DERIVATIVE” (Nissan Chemical Industries, Ltd., priority 2009, published 2012)

Tests used:
Format in all cases: in vivo
[1] = tested on: barnyardgrass; assay: Test Example 1: herbicidal effects in preemergence treatment under submerged conditions; settings: dose 2.52 g/a
In short: (§1)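 Alluvial soil flooded to 4 cm depth; barnyardgrass, bulrush and ducksalad sown and 2.5-leaf rice seedlings transplanted. Same day, water-diluted emulsifiable concentrates applied to the water surface at set doses (g/a). Kept at 25–30 °C in greenhouse; effects scored 0–5 by mortality after three weeks.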

[2] = tested on: bulrush; assay: as above; settings: dose 2.52 g/a
In short: as §1

[3] = tested on: ducksalad; assay: as above; settings: dose 2.52 g/a
In short: as §1

[4] = tested on: transplanted rice; assay: Test Example 1: preemergence treatment under submerged conditions, effect on crop; settings: dose 2.52 g/a
In short: as §1

[5] = tested on: barnyardgrass; assay: Test Example 2: herbicidal effects during the vegetation period under submerged conditions; settings: treatment during the vegetation period under submerged conditions; dose 2.52 g/a
In short: (§2)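 Barnyardgrass, bulrush and ducksalad were co-sown in alluvial soil flooded to 4 cm and grown in a greenhouse at 25 to 30° C. At the 1- or 2-leaf stage, water-diluted emulsifiable concentrates went onto the water surface at set doses (g/a). Herbicidal effect was scored three weeks later on a graded scale.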

[6] = tested on: bulrush; assay: as above; settings: treatment during the vegetation period under submerged conditions; dose 2.52 g/a
In short: as §2

[7] = tested on: ducksalad; assay: as above; settings: treatment during the vegetation period under submerged conditions; dose 2.52 g/a
In short: as §2

[8] = tested on: Italian ryegrass; assay: Test Example 3: herbicidal effects in soil treatment; settings: dose 3.2 g/a
In short: (§3)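 Seeds were sown in sterilized diluvial soil and covered with about 1.5 cm of soil. Compounds, formulated as emulsifiable concentrates and diluted with water, were sprayed evenly over the soil surface at set doses in g/a. Herbicidal effect was scored on a rating scale three weeks later.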

[9] = tested on: barnyardgrass; assay: as above; settings: dose 3.2 g/a
In short: as §3

[10] = tested on: beadstraw; assay: as above; settings: dose 3.2 g/a
In short: as §3

[11] = tested on: common chickweed; assay: as above; settings: dose 3.2 g/a
In short: as §3

[12] = tested on: common lambsquater; assay: as above; settings: dose 3.2 g/a
In short: as §3

[13] = tested on: common ragweed; assay: as above; settings: dose 3.2 g/a
In short: as §3

[14] = tested on: giant foxtail; assay: as above; settings: dose 3.2 g/a
In short: as §3

[15] = tested on: large crabgrass; assay: as above; settings: dose 3.2 g/a
In short: as §3

[16] = tested on: posumbu knotweed; assay: as above; settings: dose 3.2 g/a
In short: as §3

[17] = tested on: redroot pigweed; assay: as above; settings: dose 3.2 g/a
In short: as §3

[18] = tested on: velvetleaf; assay: as above; settings: dose 3.2 g/a
In short: as §3

[19] = tested on: water foxtail; assay: as above; settings: dose 3.2 g/a
In short: as §3

[20] = tested on: Italian ryegrass; assay: Test Example 4: herbicidal effect in foliage treatment; settings: dose 3.2 g/a, three weeks after application
In short: (§4)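 Seeds sown in sterilized diluvial soil under ~1.5 cm soil cover and grown 14 days in a greenhouse at 25 to 30° C. Emulsifiable concentrates diluted with water were then sprayed uniformly on foliage at predetermined doses (g/a). Herbicidal effect was scored three weeks after application on a graded evaluation scale.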

[21] = tested on: barnyardgrass; assay: as above; settings: dose 3.2 g/a, three weeks after application
In short: as §4

[22] = tested on: beadstraw; assay: as above; settings: dose 3.2 g/a, three weeks after application
In short: as §4

[23] = tested on: common chickweed; assay: as above; settings: dose 3.2 g/a, three weeks after application
In short: as §4

[24] = tested on: common lambsquater; assay: as above; settings: dose 3.2 g/a, three weeks after application
In short: as §4

[25] = tested on: common ragweed; assay: as above; settings: dose 3.2 g/a, three weeks after application
In short: as §4

[26] = tested on: giant foxtail; assay: as above; settings: dose 3.2 g/a, three weeks after application
In short: as §4

[27] = tested on: large crabgrass; assay: as above; settings: dose 3.2 g/a, three weeks after application
In short: as §4

[28] = tested on: posumbu knotweed; assay: as above; settings: dose 3.2 g/a, three weeks after application
In short: as §4

[29] = tested on: redroot pigweed; assay: as above; settings: dose 3.2 g/a, three weeks after application
In short: as §4

[30] = tested on: velvetleaf; assay: as above; settings: dose 3.2 g/a, three weeks after application
In short: as §4

[31] = tested on: water foxtail; assay: as above; settings: dose 3.2 g/a, three weeks after application
In short: as §4

Row | Structure (SMILES) | A: barnyardgrass, herbicidal effect (evaluation scale 0-5) [1] | B: bulrush, herbicidal effect (evaluation scale 0-5) [2] | C: ducksalad, herbicidal effect (evaluation scale 0-5) [3] | a: transplanted rice, effect on crop (evaluation scale 0-5) [4] | A: barnyardgrass, herbicidal effect (evaluation scale 0-5) [5] | B: bulrush, herbicidal effect (evaluation scale 0-5) [6] | C: ducksalad, herbicidal effect (evaluation scale 0-5) [7] | H: Italian ryegrass, herbicidal effect (evaluation scale 0-5) [8] | A: barnyardgrass, herbicidal effect (evaluation scale 0-5) [9] | O: beadstraw, herbicidal effect (evaluation scale 0-5) [10] | N: common chickweed, herbicidal effect (evaluation scale 0-5) [11] | L: common lambsquater, herbicidal effect (evaluation scale 0-5) [12] | J: common ragweed, herbicidal effect (evaluation scale 0-5) [13] | E: giant foxtail, herbicidal effect (evaluation scale 0-5) [14] | D: large crabgrass, herbicidal effect (evaluation scale 0-5) [15] | M: posumbu knotweed, herbicidal effect (evaluation scale 0-5) [16] | K: redroot pigweed, herbicidal effect (evaluation scale 0-5) [17] | I: velvetleaf, herbicidal effect (evaluation scale 0-5) [18] | G: water foxtail, herbicidal effect (evaluation scale 0-5) [19] | H: Italian ryegrass, herbicidal effect [20] | also measured
1 | CCOC(=O)N(c1ccccc1CN1COC2(CCC2)CC1=O)S(=O)(=O)C(F)(F)F [II-63] | 5 (mortality of 90% or above (nearly complete death)) | 5 (mortality of 90% or above (nearly complete death)) | 5 (mortality of 90% or above (nearly complete death)) | 1 (mortality of at least 5% and less than 20%) | 5 (mortality of 90% or above (nearly complete death)) | 5 (mortality of 90% or above (nearly complete death)) | 5 (mortality of 90% or above (nearly complete death)) | 4 (mortality of at least 70% and less than 90%) | 5 (mortality of 90% or above (nearly complete death)) | 4 (mortality of at least 70% and less than 90%) | 5 (mortality of 90% or above (nearly complete death)) | 3 (mortality of at least 40% and less than 70%) | 4 (mortality of at least 70% and less than 90%) | 5 (mortality of 90% or above (nearly complete death)) | 5 (mortality of 90% or above (nearly complete death)) | 4 (mortality of at least 70% and less than 90%) | 4 (mortality of at least 70% and less than 90%) | 5 (mortality of 90% or above (nearly complete death)) | 5 (mortality of 90% or above (nearly complete death)) | 4 (mortality of at least 70% and less than 90%) | A: barnyardgrass, herbicidal effect [21]: 5 (mortality of 90% or above (nearly complete death)); O: beadstraw, herbicidal effect [22]: 3 (mortality of at least 40% and less than 70%); N: common chickweed, herbicidal effect [23]: 4 (mortality of at least 70% and less than 90%); L: common lambsquater, herbicidal effect [24]: 3 (mortality of at least 40% and less than 70%); J: common ragweed, herbicidal effect [25]: 4 (mortality of at least 70% and less than 90%); E: giant foxtail, herbicidal effect [26]: 4 (mortality of at least 70% and less than 90%); D: large crabgrass, herbicidal effect [27]: 4 (mortality of at least 70% and less than 90%); M: posumbu knotweed, herbicidal effect [28]: 4 (mortality of at least 70% and less than 90%); K: redroot pigweed, herbicidal effect [29]: 2 (mortality of at least 20% and less than 40%); I: velvetleaf, herbicidal effect [30]: 5 (mortality of 90% or above (nearly complete death)); G: water foxtail, herbicidal effect [31]: 5 (mortality of 90% or above (nearly complete death))
2 | O=C1CC2(CCCCC2)OCN1Cc1ccccc1NS(=O)(=O)C(F)(F)F [II-67] | 5 (mortality of 90% or above (nearly complete death)) | 5 (mortality of 90% or above (nearly complete death)) | 5 (mortality of 90% or above (nearly complete death)) | 0 (mortality of less than 5% (almost ineffective)) | 5 (mortality of 90% or above (nearly complete death)) | 5 (mortality of 90% or above (nearly complete death)) | 5 (mortality of 90% or above (nearly complete death)) | 5 (mortality of 90% or above (nearly complete death)) | 5 (mortality of 90% or above (nearly complete death)) | 5 (mortality of 90% or above (nearly complete death)) | 5 (mortality of 90% or above (nearly complete death)) | 5 (mortality of 90% or above (nearly complete death)) | 2 (mortality of at least 20% and less than 40%) | 5 (mortality of 90% or above (nearly complete death)) | 5 (mortality of 90% or above (nearly complete death)) | 5 (mortality of 90% or above (nearly complete death)) | 3 (mortality of at least 40% and less than 70%) | 5 (mortality of 90% or above (nearly complete death)) | 5 (mortality of 90% or above (nearly complete death)) | 2 (mortality of at least 20% and less than 40%) | A: barnyardgrass, herbicidal effect [21]: 5 (mortality of 90% or above (nearly complete death)); O: beadstraw, herbicidal effect [22]: 3 (mortality of at least 40% and less than 70%); N: common chickweed, herbicidal effect [23]: 4 (mortality of at least 70% and less than 90%); L: common lambsquater, herbicidal effect [24]: 4 (mortality of at least 70% and less than 90%); J: common ragweed, herbicidal effect [25]: 3 (mortality of at least 40% and less than 70%); E: giant foxtail, herbicidal effect [26]: 5 (mortality of 90% or above (nearly complete death)); D: large crabgrass, herbicidal effect [27]: 5 (mortality of 90% or above (nearly complete death)); M: posumbu knotweed, herbicidal effect [28]: 3 (mortality of at least 40% and less than 70%); K: redroot pigweed, herbicidal effect [29]: 0 (mortality of less than 5% (almost ineffective)); I: velvetleaf, herbicidal effect [30]: 5 (mortality of 90% or above (nearly complete death)); G: water foxtail, herbicidal effect [31]: 5 (mortality of 90% or above (nearly complete death))
